Test results reported in US20230212121A1 (DAEGU-GYEONGBUK MEDICAL INNOVATION FOUNDATION, priority 2020, published 2023).

Columns and labels:
Format in all cases: cell-based
[1] = biological target: T1, serotonin transporter (SERT) (Homo sapiens, UniProt P31645); experiment: Serotonin reuptake inhibition, [3H]-5-HT, HEK-293 cells transfected with 5-HT transporter cDNA; conditions: for Triple reuptake inhibition (Ratio %) SERT: compound 1 μM, [3H]-5-HT, relative to control without compound = 100%, lower value = more inhibition; for IC50: concentration at which Ratio % is 50%, 6 concentrations 1 nM to 1 μM, read-out: Triple reuptake inhibition (IC50, μM) SERT
T1 construct: expressed in transfected cells; host or cells: HEK-293
T1 sequence (P31645 whole entry, species assumed): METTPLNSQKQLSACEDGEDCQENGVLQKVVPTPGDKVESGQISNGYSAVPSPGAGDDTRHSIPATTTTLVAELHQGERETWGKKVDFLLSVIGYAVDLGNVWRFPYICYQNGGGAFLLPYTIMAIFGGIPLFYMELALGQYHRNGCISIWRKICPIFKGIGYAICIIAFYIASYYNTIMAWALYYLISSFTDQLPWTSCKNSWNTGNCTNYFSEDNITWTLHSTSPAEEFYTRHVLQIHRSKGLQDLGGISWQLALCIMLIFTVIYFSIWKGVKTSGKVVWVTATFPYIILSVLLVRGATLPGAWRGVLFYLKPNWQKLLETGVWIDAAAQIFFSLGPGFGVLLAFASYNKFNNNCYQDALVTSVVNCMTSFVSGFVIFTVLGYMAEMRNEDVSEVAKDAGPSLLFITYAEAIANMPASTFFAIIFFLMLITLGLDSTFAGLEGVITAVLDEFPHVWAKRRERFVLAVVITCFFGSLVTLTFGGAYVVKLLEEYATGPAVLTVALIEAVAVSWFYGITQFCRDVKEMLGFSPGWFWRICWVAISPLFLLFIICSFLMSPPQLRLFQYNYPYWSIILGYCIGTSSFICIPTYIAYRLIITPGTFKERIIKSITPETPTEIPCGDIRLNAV
Method: (§1) In order to evaluate the reuptake inhibitory effect of the compounds of the Examples according to the present invention on serotonin, norepinephrine and dopamine, the experiments below were performed, and the results are shown in Table 17.
(§2) To evaluate the reuptake inhibition effect on dopamine, the dopamine transporter cDNA was transfected using the HEK-293 cell line, and then sub-seeded in a 24 well plate the next day. After removing the medium, each compound of the Examples or Comparative Examples diluted to 1 μM in uptake buffer was added to a concentration of 200 μl/well and cultured at 37° C. for 15 minutes. 100 μl of uptake buffer containing 20-30 nM [3H]-DA was added and cultured at 37° C. for 5 minutes. The reaction solution was quickly removed and washed three times with 1 ml ice-cold uptake buffer. After dissolving the resultant in 1% SDS (0.5 ml), the degree of binding of radioisotope-labeled dopamine to the transporter was measured.
(§3) For norepinephrine (NE) and serotonin (5-HT), the degree of binding of radioisotope-labeled norepinephrine or serotonin to the transporter was measured in the same manner as above, except that cells transfected with NE or 5-HT transporter cDNA were used and [3H]—NE or [3H]-5-HT was used as a substrate.
(§4) In addition, when evaluating the reuptake inhibitory effect on dopamine, norepinephrine, and serotonin, the same method was performed without treating each compound of the Examples or Comparative Examples as a control, the degree of binding of radioisotope-labeled dopamine, norepinephrine, and serotonin to the transporter was measured, and by using this as a reference (100%), the triple reuptake inhibitory effect was evaluated as a relative ratio (Ratio %). That is, in the control group, the binding of dopamine, norepinephrine, and serotonin to transporters is not inhibited, but when each compound of the Examples is treated and thus the binding is inhibited, the Ratio % value decreases.
(§5) Meanwhile, the Ratio % values were compared, and in the case of the compounds of Examples 6, 10, 13, 14, 17, 20, 21, 22, 30, 31, 32, 34, 36, 38, 39, 40, 54, 55, 56, 57, 58 and 73 with excellent reuptake inhibitory effects on dopamine, norepinephrine and serotonin, the concentration at which the Ratio % is 50% was calculated using a total of 6 concentrations (1 nM, 5 nM, 10 nM, 50 nM, 100 nM, and 1 μM) and expressed as IC50.

[2] = biological target: T2, norepinephrine transporter (NET) (Homo sapiens, UniProt P23975); experiment: Norepinephrine reuptake inhibition, [3H]-NE, HEK-293 cells transfected with NE transporter cDNA; conditions: for Triple reuptake inhibition (Ratio %) NET: compound 1 μM, [3H]-NE, relative to control without compound = 100%, lower value = more inhibition; for IC50: concentration at which Ratio % is 50%, 6 concentrations 1 nM to 1 μM, read-out: Triple reuptake inhibition (IC50, μM) NET
T2 construct: expressed in transfected cells; host or cells: HEK-293
T2 sequence (P23975 whole entry, species assumed): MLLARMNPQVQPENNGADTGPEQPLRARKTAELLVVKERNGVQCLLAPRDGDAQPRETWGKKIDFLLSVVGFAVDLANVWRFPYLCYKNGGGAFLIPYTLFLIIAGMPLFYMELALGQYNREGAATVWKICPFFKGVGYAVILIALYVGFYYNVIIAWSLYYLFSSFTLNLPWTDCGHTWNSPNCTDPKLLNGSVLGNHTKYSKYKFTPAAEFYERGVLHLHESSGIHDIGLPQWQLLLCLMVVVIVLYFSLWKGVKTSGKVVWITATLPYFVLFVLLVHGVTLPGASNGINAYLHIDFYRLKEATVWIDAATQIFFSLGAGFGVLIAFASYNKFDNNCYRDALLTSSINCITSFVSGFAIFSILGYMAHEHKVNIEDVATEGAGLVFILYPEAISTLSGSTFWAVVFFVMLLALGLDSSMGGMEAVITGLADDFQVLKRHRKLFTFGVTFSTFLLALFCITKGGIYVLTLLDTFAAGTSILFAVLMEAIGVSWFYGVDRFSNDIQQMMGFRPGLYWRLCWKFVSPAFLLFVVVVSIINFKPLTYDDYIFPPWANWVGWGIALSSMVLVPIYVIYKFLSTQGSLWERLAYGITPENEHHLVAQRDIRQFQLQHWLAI
Method: as §1, §2, §3, §4, §5

[3] = biological target: T3, dopamine transporter (DAT) (Homo sapiens, UniProt Q01959); experiment: Dopamine reuptake inhibition, [3H]-DA, HEK-293 cells transfected with dopamine transporter cDNA; conditions: for Triple reuptake inhibition (Ratio %) DAT: compound 1 μM, 20-30 nM [3H]-DA, relative to control without compound = 100%, lower value = more inhibition; for IC50: concentration at which Ratio % is 50%, 6 concentrations 1 nM to 1 μM, read-out: Triple reuptake inhibition (IC50, μM) DAT
T3 construct: expressed in transfected cells; host or cells: HEK-293
T3 sequence (Q01959 whole entry, species assumed): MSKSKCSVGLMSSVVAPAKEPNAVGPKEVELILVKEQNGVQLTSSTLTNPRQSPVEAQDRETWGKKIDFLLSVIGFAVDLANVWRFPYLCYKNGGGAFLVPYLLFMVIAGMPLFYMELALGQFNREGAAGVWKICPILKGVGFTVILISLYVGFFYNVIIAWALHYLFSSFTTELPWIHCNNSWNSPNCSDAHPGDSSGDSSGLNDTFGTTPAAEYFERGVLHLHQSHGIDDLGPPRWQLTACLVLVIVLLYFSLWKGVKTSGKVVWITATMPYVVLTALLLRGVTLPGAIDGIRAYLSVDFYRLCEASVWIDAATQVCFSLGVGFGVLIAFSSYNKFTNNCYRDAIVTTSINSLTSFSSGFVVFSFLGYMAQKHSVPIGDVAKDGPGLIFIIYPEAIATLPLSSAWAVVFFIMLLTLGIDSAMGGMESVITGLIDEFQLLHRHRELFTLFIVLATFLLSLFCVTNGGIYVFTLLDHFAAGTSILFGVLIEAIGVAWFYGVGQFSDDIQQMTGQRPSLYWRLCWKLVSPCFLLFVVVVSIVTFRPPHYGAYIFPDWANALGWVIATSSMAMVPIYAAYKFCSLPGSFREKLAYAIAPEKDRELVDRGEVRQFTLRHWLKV
Method: as §1, §2, §4, §5

Triple reuptake inhibition (Ratio %) SERT [1] [%] | Triple reuptake inhibition (Ratio %) NET [2] [%] | Triple reuptake inhibition (Ratio %) DAT [3] [%] | IC50 [1] [µM] | IC50 [2] [µM] | IC50 [3] [µM] | SMILES
47.19 | 64.45 | 68.53 |  |  |  | O=S(=O)(NCCN1CCN(c2ccc(Cl)cc2)CC1)c1ccc(-c2ccccc2)cc1 [Example 52, N-(2-(4-(4-chlorophenyl)piperazin-1-yl)ethyl)-[1,1′-biphenyl]-4-sulfonamide]
47.19 | 64.45 | 68.53 |  |  |  | O=S(=O)(NCCN1CCN(c2ccc(Cl)cc2)CC1)c1ccc2ccccc2n1 [Example 53, N-(2-(4-(4-chlorophenyl)piperazinyl)ethyl)quinolin-2-sulfonamide]
46.18 | 31.83 | 35.21 | 1.45 | 1.3 | 1.55 | O=S(=O)(NCCCN1CCC(Cc2ccccc2)CC1)c1cccc2ccccc12 [Example 55, N-(3-(4-benzylpiperidin-1-yl)propyl)naphthalen-1-sulfonamide]
56.50 | 68.65 | 61.90 | 0.75 | 0.641 | 0.42 | O=S(=O)(NCCCN1CCC(Cc2ccccc2)CC1)c1ccc(-c2ccccc2)cc1 [Example 56, N-(3-(4-benzylpiperidin-1-yl)propyl)-[1,1′-biphenyl]-4-sulfonamide]
53.66 | 30.54 | 13.09 | 0.345 | 1.35 | 4.48 | O=S(=O)(NCCCN1CCC(Cc2ccccc2)CC1)c1ccc2ccccc2n1 [Example 57, N-(3-(4-benzylpiperidin-1-yl)propyl)quinolin-2-sulfonamide]
50.76 | 44.79 | 55.51 | 1.84 | 0.429 | 0.647 | O=S(=O)(NCCCN1CCC(Cc2ccccc2)CC1)c1ccc(-c2ccc(F)cc2)cc1 [Example 58, N-(3-(4-benzylpiperidin-1-yl)propyl)-4′-fluoro-[1,1′-biphenyl]-4-sulfonamide]
29.78 | 44.79 | 15.16 |  |  |  | O=S(=O)(NCCCN1CCC(Cc2ccccc2)CC1)c1ccc(-c2ccc(Cl)cc2)cc1 [Example 59, N-(3-(4-benzylpiperidin-1-yl)propyl)-4′-chloro-[1,1′-biphenyl]-4-sulfonamide]
17.76 | 44.79 | 9.15 |  |  |  | Cc1ccc(-c2ccc(S(=O)(=O)NCCCN3CCC(Cc4ccccc4)CC3)cc2)cc1 [Example 60, N-(3-(4-benzylpiperidin-1-yl)propyl)-4′-methyl-[1,1′-biphenyl]-4-sulfonamide]
30.78 | 44.79 | 29.62 |  |  |  | COc1ccc(-c2ccc(S(=O)(=O)NCCCN3CCC(Cc4ccccc4)CC3)cc2)cc1 [Example 61, N-(3-(4-benzylpiperidin-1-yl)propyl)-4′-methoxy-[1,1′-biphenyl]-4-sulfonamide]
64.15 | 34.97 | 80.21 |  |  |  | O=S(=O)(NCCCN1CCC(c2ccccc2)CC1)c1cccc2ccccc12 [Example 63]

SMILES | Triple reuptake inhibition (Ratio %) SERT [1] [%] | Triple reuptake inhibition (Ratio %) NET [2] [%] | Triple reuptake inhibition (Ratio %) DAT [3] [%] | IC50 [1] [µM] | IC50 [2] [µM] | IC50 [3] [µM]
O=S(=O)(NCCCN1CCC(Cc2ccccc2)CC1)c1ccc2ccccc2c1 [Example 54, N-(3-(4-benzylpiperidin-1-yl)propyl)naphthalen-2-sulfonamide] | 46.95 | 36.68 | 45.75 | 1.94 | 1.25 | 0.948
